Among the data in ChEMBL document CHEMBL5034032, “Discovery and Structure-Based Optimization of Fragments Binding the Mixed Lineage Kinase Domain-like Protein Executioner Domain” (J Med Chem, 2021) are Kd and Papp values, retold here.

SMILES strings stand for the structures.

For series [1], the target named is T1, Mixed lineage kinase domain-like protein (Homo sapiens, UniProt Q8NB16).
T1 sequence (Q8NB16 whole entry): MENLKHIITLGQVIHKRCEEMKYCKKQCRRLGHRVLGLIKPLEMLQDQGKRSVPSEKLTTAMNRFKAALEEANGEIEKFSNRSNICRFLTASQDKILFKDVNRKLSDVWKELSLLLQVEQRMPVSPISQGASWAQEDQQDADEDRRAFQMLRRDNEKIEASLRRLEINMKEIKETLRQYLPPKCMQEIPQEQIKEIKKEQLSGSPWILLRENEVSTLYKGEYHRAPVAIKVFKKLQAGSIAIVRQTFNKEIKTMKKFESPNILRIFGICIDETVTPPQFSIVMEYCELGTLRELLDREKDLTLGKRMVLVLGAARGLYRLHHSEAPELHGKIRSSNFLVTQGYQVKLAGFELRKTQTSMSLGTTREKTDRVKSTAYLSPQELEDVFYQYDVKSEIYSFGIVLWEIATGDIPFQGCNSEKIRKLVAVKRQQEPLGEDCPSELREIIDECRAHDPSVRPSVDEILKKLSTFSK
The experiment in a line: Binding affinity to MLKL N-terminal executioner domain (2 to 154 residues)(unknown origin) assessed as dissociation constant by TROSY-HSQC NMR titration analysis.

Series [2] in a line: Permeability of compound by PAMPA assay. It counts as ADME. Particulars: read-out: permeability.

Usually Kd stands for the concentration at which binding is half-saturated. Regarding `CCCCCCCCCO[C@@H]1O[C@H](CO)[C@@H](O[C@H]2O[C@H](CO)[C@@H](O)[C@H](O)[C@H]2O)[C@H](O)[C@H]1O`, the Kd in series [1] was found to be 5530 µM.
Turning to `CO[C@@H](c1ccc(C(C)C)cc1)c1nc2ccc(C(=O)O)cc2[nH]1`, the Papp in series [2] was determined as 0.031 ×10⁻⁶ cm/s.
Take `COCCOCn1c(S(C)(=O)=O)nc2c1c(=O)n(C)c(=O)n2C`: the Kd in series [1] was found to be 73 µM.
